How the values were obtained:
[1] = Canine pharmacokinetic assay; format: in vivo, male Beagle dogs
Method: (§1) In a mouse pharmacokinetic assay, male ICR mice (20 g to 25 g) were selected and fasted overnight. Three mice were selected and intragastrically administered with 5 mg/kg of the corresponding compound. The blood of the mice was collected before the administration and at 15 min, 30 min, 1 h, 2 h, 4 h, 8 h, 24 h after the administration. Another 3 mice were intravenously administered with 1 mg/kg of the corresponding compound, and the blood thereof was collected before the administration and at 15 min, 30 min, 1 h, 2 h, 4 h, 8 h, 24 h after the administration. The blood samples were centrifuged at 6800 g at 2° C. to 8° C. for 6 minutes, and plasma was collected and stored at −80° C. The plasma was taken at respective time point, mixed with 3-5 times the amount of acetonitrile containing internal standard, vortexed for 1 minute, centrifuged at 4° C. for 10 minutes at 13000 rpm, supernatant was added 3 times the amount of water, and the appropriate mixture was taken for LC-MS/MS analysis. The primary pharmacokinetic parameters were analyzed with a WinNonlin 7.0 software, with non-compartmental model.
In a canine pharmacokinetic assay, male Beagle dogs (8 kg to 10 Kg) were selected and fasted overnight. Three Beagle dogs were taken and intragastrically administered with 3 mg/kg of the corresponding compound. Another 3 Beagle dogs were intravenously administered with 1 mg/kg of the corresponding compound. The following operations were the same as the mouse pharmacokinetic assay.

[2] = Rat pharmacokinetic assay; format: in vivo, male SD rats
Method: as §1
In a rat pharmacokinetic assay, male SD rats (180 g to 240 g) were selected and fasted overnight. Three rats were intragastrically administered with 5 mg/kg of the corresponding compound. Another 3 rats were intravenously administered with 1 mg/kg of the corresponding compound. The following operations were the same as the mouse pharmacokinetic assay.

human EP4 receptor = human EP4 receptor (Homo sapiens, UniProt P35408); test: Assay of calcium current inhibition on EP4 receptor (FLIPR, 293 cells); format: cell-based; set-up: expressed in transfected cells; host or cells: 293 cells; conditions: 293 cells overexpressing human EP4; PGE2 at EC80; FLIPR
human EP4 receptor, sequence (P35408 whole entry): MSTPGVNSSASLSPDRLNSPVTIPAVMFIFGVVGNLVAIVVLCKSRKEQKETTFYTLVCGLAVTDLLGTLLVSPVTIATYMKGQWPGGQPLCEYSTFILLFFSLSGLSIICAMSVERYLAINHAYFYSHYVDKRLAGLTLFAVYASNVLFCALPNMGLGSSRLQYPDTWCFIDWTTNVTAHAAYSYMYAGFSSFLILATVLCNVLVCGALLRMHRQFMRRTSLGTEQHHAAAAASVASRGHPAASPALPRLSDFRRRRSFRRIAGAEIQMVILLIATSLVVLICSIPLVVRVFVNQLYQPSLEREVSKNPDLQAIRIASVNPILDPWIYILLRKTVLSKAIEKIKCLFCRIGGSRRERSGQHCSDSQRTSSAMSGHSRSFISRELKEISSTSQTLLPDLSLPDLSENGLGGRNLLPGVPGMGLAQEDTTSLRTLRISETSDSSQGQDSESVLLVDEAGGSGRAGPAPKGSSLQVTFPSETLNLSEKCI
Method: The cells were rapidly thawed in a 37° C. water bath, centrifuged, resuspended, and counted. The cell suspensions were seeded at 20 μL/well in two 384-well plates (20,000 cells/well) and placed in an incubator (a 37° C., 5% CO2) overnight. Preparation of a 2× Fluo-4 Direct™ (Invitrogen, Cat #F10471) loading buffer: 77 mg of probenecid was added to 1 mL of a FLIPR buffer, with a concentration of 250 mM. 10 mL of FLIPR buffer and 0.2 mL of probenecid (250 mM) were added to each tube of Fluo-4 Direct™ crystals (F10471).
One of the cell plates was taken out of the incubator and the medium was removed. 20 μL of an assay buffer and 2× Fluo-4 Direct™ non-wash loading buffer were added to the 384-well cell culture plate to a final volume of 40 μL, and then the culture plate was incubated in an incubator (a 37° C., 5% CO2) for 50 minutes, and then at room temperature for 10 minutes, and then the plate was placed in the FLIPR. 10 μL of the buffer was transferred to the cell plate and the fluorescence signal was read. The agonist PGE2 was formulated as a 10 mM stock in a DMSO solvent and 10 concentration points of the 6× working solution were serially diluted using the buffer. 10 μL of the agonist PGE2 was transferred to the cell plate, the fluorescence signal was read to calculate EC80 value.
The agonist PGE2 was prepared at 6× EC80 concentration and the compound to be tested was formulated as a 10 mM stock solution in the DMSO solvent and 10 concentration points of the 6× compound working solution was serially diluted using the buffer.
Another cell plate was taken to remove media and 20 μL of the assay buffer and 2× Fluo-4 Direct™ non-wash loading buffer were added; the cell plate was incubated in a 37° C., 5% CO2 incubator for 50 minutes and room temperature for 10 minutes and then placed in the FLIPR. 10 μL of the compound working solution, DMSO, and the EP4 full antagonist were transferred to the cell plate and the fluorescence signal was read. […] Inhibition (%)=100−(test group−EP4 full antagonist group)/(DMSO group−EP4 full antagonist group)*100
Compound's IC50 value of EP4 calcium current inhibition was calculated based on the inhibition rate at different concentrations of the compound.

[3] = molecular target: T1, recombinant human EP4 receptor membrane protein (Homo sapiens, UniProt P35408); test: Radioligand binding assay for EP4 receptor ([3H]-PGE2); conditions: [3H]-PGE2 1.5 nM; membrane protein 20 μg/well
T1 construct: expressed in transfected cells; host or cells: membranes of 293 cells overexpressing human EP4 receptor
T1 sequence (P35408 whole entry): as above
Method: The compounds to be tested and PGE2 were formulated as 10 mM stocks in a DMSO solvent, and then 8 concentration points of 4× working solution were serially diluted using a buffer (50 mM HBSS, 0.1% BSA, 500 mM NaCl). […] Unifilter-96 GF/C filter plate (Perkin Elmer) was soaked with 0.5% BSA, 50 μL per well, for at least 30 min at room temperature. After binding was complete, the reaction mixture was harvested through a GF/C plate using a Perkin Elmer Filtermate Harvester, followed by washing the filter plate and drying the filter plate for 1 hour at 50° C. After drying, the bottom of the filter plate wells was sealed using a Perkin Elmer Unifilter-96 sealing tape, and 50 μL of MicroScint™-20 cocktail (Perkin Elmer) was added to seal the top of the filter plate. The ^3H counts captured on the filter were read using a Perkin Elmer MicroBeta2 Reader.
The IC50 and Ki values of the compounds determined by the radioligand binding assay for EP4 receptor were calculated based on the inhibition rate of the different concentrations of the compounds.

[4] = male, Beagle, dog, plasma, canine, intravenous administration 1 mg/kg
[5] = male, Beagle, dog, plasma, canine, oral gavage administration 3 mg/kg
[6] = male, SD, plasma, rat, intravenous administration 1 mg/kg
[7] = male, SD, plasma, rat, oral gavage administration 5 mg/kg

exposure after oral administration relative to the control compound ([1]; canines, oral administration): about 2 times
AUC(0-t) [1, 4]: 4370 ng·h/mL
clearance [1, 4]: 3.5 mL/min/kg
half-life [1, 4]: 9.73 h
Vd ([1]; male, Beagle, dog, plasma, canine, intravenous administration 1 mg/kg, read-out: Vz): 2.84 L/kg
AUC(0-t) [1, 5]: 10300 ng·h/mL
Cmax [1, 5]: 4820 ng/mL
Tmax [1, 5]: 0.25 h
half-life [1, 5]: 19.9 h
AUC(0-t) [2, 6]: 1670 ng·h/mL
clearance [2, 6]: 9.5 mL/min/kg
half-life [2, 6]: 9.3 h
Vd ([2]; male, SD, plasma, rat, intravenous administration 1 mg/kg, read-out: Vz): 7.66 L/kg
AUC(0-t) [2, 7]: 10800 ng·h/mL
Cmax [2, 7]: 993 ng/mL
Tmax [2, 7]: 2 h
half-life [2, 7]: 9.87 h
exposure after oral administration relative to the control compound ([2]; rats, oral administration): about 2 times
IC50 (human EP4 receptor): 12 nM
IC50 [3]: 5.3 nM
Ki [3]: 2.9 nM
SMILES: C[C@H](NC(=O)c1c(C(F)F)nn(C)c1Oc1cccc(C(C)(F)F)c1)c1ccc(C(=O)O)cc1 [Compound I-5, (S)-4-(1-(5-(3-(1,1-difluoroethyl)phenoxy)-3-(difluoromethyl)-1-methyl-1H-pyrazole-4-carboxamido)ethyl)benzoic Acid]
